Assay results from patent publication US9751919B2, “Antimicrobial compositions comprising a hyaluronic acid binding peptide and a β-lactam antibiotic” (priority 2012, dated 2017).
Several values for one entry are separate records, joined by “and”; a condition that tells them apart may be missing. Identical values can stand only once. Marks after values point to notes of the source that are not given here.

Legend:
Test in all cases: Checkerboard assay (FIC index)
S. agalactiae = type: cell-based, Streptococcus agalactiae; conditions: antibiotic combined with PEP35
Protocol: (§1) The checkerboard assays were carried out as described by Eliopoulos and Moellering (Chapter 9) in Antibiotic in Laboratory Medicine, Lorian Ed. 1996 as well as Bonapace et al. Diagnostic Microbiology and Infectious Diseases 2002; 44:363-366 and Bonapace et al. Diagnostic Microbiology and Infectious Diseases 2000; 38:43-50. In brief, checkerboard assays were performed in 96 well microtitre trays using an 8-by-8 well configuration. […] 96-well custom designed microtitre plates contained 100 ul/well of cation adjusted Mueller-Hinton broth (eg. for Enterobacteriaceae) with or without lysed horse blood (2-5% V/V) [eg. for S. pneumoniae] and were inoculated to achieve a final concentration of approximately 5×10^5 CFU/ml and incubated in ambient air for 24 hours prior to reading. Colony counts were performed periodically to confirm inocula. Quality control was performed every two weeks using a variety of ATCC QC organisms including; S. pneumoniae 49619, S. aureus 29213, E. faecalis 29212, E. coli 25922 and P. aeruginosa 27853. For all antimicrobials as well as PEP35, CLSI criteria was used.
(§2) The fractional inhibitory concentration index (FIC index) was used to interpret synergy, antagonism or additivity/indifference. FIC index=FIC of drug A+FIC of drug B where:
(§3) The FIC of drug A and drug B is calculated as follows, FIC drug A=MIC of drug A in combination/MIC of drug A alone and FIC of drug B=MIC of drug B in combination/MIC of drug B alone. Synergy is defined as FIC index ≦0.5, additivity/indifference FIC >0.5-4 and antagonism FIC index >4.
(§4) Antimicrobials used included PEP35, cefazolin, ceftriaxone, vancomycin, linezolid, tigecycline and daptomycin versus Gram-positive cocci and PEP35, gentamicin, levofloxacin, piperacillin/tazobactam, meropenem and colistin (Polymyxin E) versus Gram-negative bacilli. These agents were obtained as laboratory grade powders from their respective manufacturers. Stock solutions were prepared and dilutions made as described by the Clinical Laboratory Standards Institute (2005 CLSI).
(§5) Organisms included Gram-positive cocci (2 strains of each): Methicillin-susceptible Staphylococcus aureus (MSSA), community-associated (CA) and healthcare-associated (HA) methicillin-resistant Staphylococcus aureus (MRSA), vancomycin-intermediate Staphylococcus aureus (VISA), vancomycin-resistant Staphylococcus aureus (VRSA), methicillin-resistant Staphylococcus epidermidis (MRSE), Streptococcus pyogenes, Streptococcus agalactiae, Streptococcus pneumoniae, Enterococcus faecalis, Enterococcus faecium and vancomycin-resistant enterococcus (VRE). Gram-negative bacilli tested (2 strains of each) included: E. coli, Pseudomonas aeruginosa, Klebsiella pneumoniae, K. oxytoca, Enterobacter cloacae, P. mirabilis and Stenotrophomonas maltophilia. MIC testing, following two subcultures from frozen stock were determined by the CLSI 2005 approved broth microdilution method.

VRSA = type: cell-based, Staphylococcus aureus
Protocol: (§6) Checkerboard assays were carried out as described by Bonapace et al.
as §1, with “Diagnostic” for “The checkerboard assays were carried out as described by Eliopoulos and Moellering (Chapter 9) in Antibiotic in Laboratory Medicine, Lorian Ed. 1996 as well as Bonapace et al. Diagnostic”, “2002; 44:363-366.” for “2002; 44:363-366 and Bonapace et al. Diagnostic Microbiology and Infectious Diseases 2000; 38:43-50.”, “27853. […] All peptides were assessed for synergy with β-lactams and vancomycin.” for “27853.”, “as the peptides,” for “as PEP35,”, “criteria were” for “criteria was”
as §2
as §3, with “was” for “is”, “additivity/indifference defined as a” for “additivity/indifference”, “between 0.5 and 4” for “>0.5-4”, “antagonism defined as an” for “antagonism”
(§7) The fractional inhibitory concentration index (FIC index) was used to interpret synergy, antagonism or additivity/indifference. FIC index=FIC of drug A+FIC of drug B where the FIC of drug A and drug B was calculated as follows, FIC drug A=MIC of drug A in combination/MIC of drug A alone and FIC of drug B=MIC of drug B in combination/MIC of drug B alone. Synergy was defined as FIC index ≦0.5, additivity/indifference defined as an FIC of between 0.5 and 4 and antagonism defined as an FIC index >4.
as §1, with “27853.” for “27853. For all antimicrobials as well as PEP35, CLSI criteria was used.”
as §3
(§8) These agents were obtained as laboratory grade powders from their respective manufacturers. Stock solutions were prepared and dilutions made as described by the Clinical Laboratory Standards Institute (2005 CLSI).

CA-MRSA = type: cell-based, Staphylococcus aureus
Protocol: as §6
as §1, with “Diagnostic” for “The checkerboard assays were carried out as described by Eliopoulos and Moellering (Chapter 9) in Antibiotic in Laboratory Medicine, Lorian Ed. 1996 as well as Bonapace et al. Diagnostic”, “2002; 44:363-366.” for “2002; 44:363-366 and Bonapace et al. Diagnostic Microbiology and Infectious Diseases 2000; 38:43-50.”, “27853. […] All peptides were assessed for synergy with β-lactams and vancomycin.” for “27853.”, “as the peptides,” for “as PEP35,”, “criteria were” for “criteria was”
as §2
as §3, with “was” for “is”, “additivity/indifference defined as a” for “additivity/indifference”, “between 0.5 and 4” for “>0.5-4”, “antagonism defined as an” for “antagonism”
as §7
as §1, with “27853.” for “27853. For all antimicrobials as well as PEP35, CLSI criteria was used.”
as §3, §8

HA-MRSA = type: cell-based, Staphylococcus aureus
Protocol: as §6
as §1, with “Diagnostic” for “The checkerboard assays were carried out as described by Eliopoulos and Moellering (Chapter 9) in Antibiotic in Laboratory Medicine, Lorian Ed. 1996 as well as Bonapace et al. Diagnostic”, “2002; 44:363-366.” for “2002; 44:363-366 and Bonapace et al. Diagnostic Microbiology and Infectious Diseases 2000; 38:43-50.”, “27853. […] All peptides were assessed for synergy with β-lactams and vancomycin.” for “27853.”, “as the peptides,” for “as PEP35,”, “criteria were” for “criteria was”
as §2
as §3, with “was” for “is”, “additivity/indifference defined as a” for “additivity/indifference”, “between 0.5 and 4” for “>0.5-4”, “antagonism defined as an” for “antagonism”
as §7
as §1, with “27853.” for “27853. For all antimicrobials as well as PEP35, CLSI criteria was used.”
as §3, §8

MRSE = type: cell-based, Staphylococcus epidermidis; conditions: antibiotic combined with PEP35
Protocol: as §1, §2, §3, §4, §5

[1] = antibiotic combined with PEP35 (added together), VRSA 105
[2] = β-lactam combined with HybPEP35-1, VRSA 106
[3] = β-lactam combined with PEP-52, VRSA 106
[4] = β-lactam combined with Scrambled PEP35, VRSA 106
[5] = antibiotic combined with PEP35 (added together), CA-MRSA 70857 (USA400)
[6] = β-lactam combined with HybPEP35-1, CA-MRSA 69615 (USA400)
[7] = β-lactam combined with PEP-52, CA-MRSA 69615 (USA400)
[8] = β-lactam combined with Scrambled PEP35, CA-MRSA 69615 (USA400)
[9] = antibiotic combined with PEP35 (added together), HA-MRSA 77090 (USA100/800)
[10] = β-lactam combined with HybPEP35-1, HA-MRSA 70798 (USA100/800)
[11] = β-lactam combined with PEP-52, HA-MRSA 70798 (USA100/800)
[12] = β-lactam combined with Scrambled PEP35, HA-MRSA 70798 (USA100/800)
[13] = antibiotic combined with PEP35 (added together), VRSA 106
[14] = antibiotic combined with PEP35 (added together), CA-MRSA 69615 (USA400)
[15] = antibiotic combined with PEP35 (added together), HA-MRSA 70798 (USA100/800)

SMILES	Avg ΣFIC (range) (S. agalactiae; S. agalactiae 80870 (MHB))	Avg ΣFIC (range) (S. agalactiae; S. agalactiae 81262 (MHB))	Avg ΣFIC (range) (VRSA; [1])	Avg ΣFIC (range) (VRSA; [2])	Avg ΣFIC (range) (VRSA; [3])	Avg ΣFIC (range) (VRSA; [4])	Avg ΣFIC (range) (CA-MRSA; [5])	Avg ΣFIC (range) (CA-MRSA; [6])	Avg ΣFIC (range) (CA-MRSA; [7])	Avg ΣFIC (range) (CA-MRSA; [8])	Avg ΣFIC (range) (HA-MRSA; [9])	Avg ΣFIC (range) (HA-MRSA; [10])	Avg ΣFIC (range) (HA-MRSA; [11])	Avg ΣFIC (range) (HA-MRSA; [12])	Avg ΣFIC (range) (MRSE; MRSE 79617)	Avg ΣFIC (range) (MRSE; MRSE 83100)	Avg ΣFIC (range) (VRSA; [13])	Avg ΣFIC (range) (CA-MRSA; [14])	Avg ΣFIC (range) (HA-MRSA; [15])
Cc1nnc(SCC2=C(C(=O)O)N3C(=O)[C@@H](NC(=O)Cn4cnnn4)[C@H]3SC2)s1 [Cefazolin]	0.92 (0.56-1.25)	1.10 (1-1.25)	0.63 (0.5-1.015)	0.52	>1*	0.52	0.3 (0.12-0.56) and 0.26 (0.09-0.53)	0.24	>0.5*	0.24	0.30 (0.12-0.56) and 0.24 (0.075-0.53)	0.35	>1*	0.35	0.88 (0.53-1.25)	0.52 (0.37-0.62)	–	–	–
CO/N=C(\C(=O)N[C@@H]1C(=O)N2C(C(=O)O)=C(CSc3nc(=O)c(=O)[nH]n3C)CS[C@H]12)c1csc(N)n1 [Ceftriaxone]	0.99 (0.53-1.25)	1.05 (0.75-1.25)	0.45 (0.24-0.56) and 0.54 (0.18-1.06)	0.39	>1*	0.39	0.51 (0.18-1.015)	0.31	>0.5*	0.31	0.27 (0.09-0.53) and 0.27 (0.09-0.56)	0.32	>1*	0.32	0.88 (0.53-1.25)	1.05 (0.75-1.25)	–	–	–
CCCCCCCCCC(=O)N[C@@H](Cc1c[nH]c2ccccc12)C(=O)N[C@H](CC(N)=O)C(=O)N[C@@H](CC(=O)O)C(=O)N[C@@H]1C(=O)NCC(=O)N[C@@H](CCCN)C(=O)N[C@@H](CC(=O)O)C(=O)N[C@H](C)C(=O)N[C@@H](CC(=O)O)C(=O)NCC(=O)N[C@H](CO)C(=O)N[C@@H]([C@H](C)CC(=O)O)C(=O)N[C@@H](CC(=O)c2ccccc2N)C(=O)O[C@@H]1C [Daptomycin, daptomycin]	0.83 (0.53-1.12)	1.69 (1.06-2.5)	0.52 (0.37-0.62)	–	–	–	1.18 (1.015-1.5)	–	–	–	1.27 (1.015-2.03)	–	–	–	1.19 (1.03-1.5)	1.1 (1.0-1.25)	0.91 (0.56-1.25)	1.18 (1.015-1.5)	0.99 (0.53-1.5)
CC(=O)NC[C@H]1CN(c2ccc(N3CCOCC3)c(F)c2)C(=O)O1 [Linezolid, linezolid]	1.1 (1.0-1.25)	0.91 (0.53-1.25)	0.80 (0.5-1.06)	–	–	–	0.89 (0.5-1.12)	–	–	–	0.74 (0.53-1.06)	–	–	–	1.10 (0.56-1.5)	0.73 (0.515-1.12)	0.83 (0.5-1.12)	0.80 (0.515-1.12)	0.70 (0.5-1.06)
C[C@@H](O)[C@H]1C(=O)N2C(C(=O)O)=C(S[C@@H]3CN[C@H](C(=O)N(C)C)C3)[C@H](C)[C@H]12 [Meropenem]	–	–	–	0.91	>1*	0.91	–	0.70	>1*	0.70	–	0.38	>1*	0.38	–	–	0.91	0.49	0.30
CN(C)c1cc(NC(=O)CNC(C)(C)C)c(O)c2c1C[C@H]1C[C@H]3[C@H](N(C)C)C(O)=C(C(N)=O)C(=O)[C@@]3(O)C(O)=C1C2=O [Tigecycline, tigecycline]	1.10 (1.0-1.25)	1.05 (0.75-1.25)	0.93 (0.62-1.12)	–	–	–	0.74 (0.5-1.06)	–	–	–	0.83 (0.5-1.12)	–	–	–	1.19 (1.03-1.5)	1.21 (1.03-1.5)	1.2 (0.56-2.12)	0.93 (0.62-1.12)	0.77 (0.5-1.06)
CN[C@H](CC(C)C)C(=O)N[C@H]1C(=O)N[C@@H](CC(N)=O)C(=O)N[C@H]2C(=O)N[C@H]3C(=O)N[C@H](C(=O)N[C@H](C(=O)O)c4cc(O)cc(O)c4-c4cc3ccc4O)[C@H](O)c3ccc(c(Cl)c3)Oc3cc2cc(c3O[C@@H]2O[C@H](CO)[C@@H](O)[C@H](O)[C@H]2O[C@H]2C[C@](C)(N)[C@H](O)[C@H](C)O2)Oc2ccc(cc2Cl)[C@H]1O [Vancomycin]	1.05 (0.75-1.25)	1.1 (1.0-1.25)	0.3 (0.15-0.53) and 0.49 (0.24-1.06)	–	–	–	1.05 (0.75-1.25)	–	–	–	0.95 (0.56-1.25)	–	–	–	0.99 (0.62-1.25)	0.60 (0.31.12) rpt	0.27 (0.09-0.53) and 0.40 (0.15-1.06)	1.19 (1.03-1.5)	1.19 (1.03-1.5)
